This is an account of results in patent US11884933B2, “Supported in vitro developed tissue culture and culturing methods” (IMBA—INSTITUT FÜR MOLEKULARE BIOTECHNOLOGIE GMBH, priority 2016, dated 2024).

Entries after “also recorded” stand apart in the source; their conditions may differ.

Data set [1] relates to microfilament patterned organoids. Put plainly: CHIR pulse after neuroepithelial budding in microfilament organoids. In kind it is cell-based, human. The text has this: At day 3, half media was changed with EB media without bFGF and Y-27632. On day 5, EBs were moved with an angled cut P200 tip to 24-well low-attachment plates (Sigma, cat. #CLS3473) with neural induction media (NI) as previously described in WO 2014/090993 A1 (incorporated herein by reference) (FIG. 1a, step 3). Media was changed every other day. On day 11, or when polarized neural ectoderm was visible on the surface, organoids were transferred to droplet of Matrigel as previously described in WO 2014/090993 A1 but kept in NI media (FIG. 1a, transition from step 3 to 4). At day 13 (2 days after Matrigel embedding), media was changed to an improved differentiation media-A (IDMA): 1:1 of DMEM/F12 and Neurobasal (Invitrogen, cat. #21103049), 0.5% N2 supplement (Invitrogen, cat. #17502048), 2% B27-vitamin A (Invitrogen, cat. #12587010), 0.25% insulin solution (Sigma, cat. #I9278-5ML), 50 μM 2-mercaptoethanol, 1% Glutamax, 0.5% MEM-NEAA, and 1% Penicillin-Streptomycin (Sigma, cat. *P0781). Additionally, CHIR 99021 (Tocris, cat. #4423) at 3 μM was added from day 13 to 16. Media was changed every other day and organoids were moved to a spinning bioreactor or orbital shaker as described previously in WO 2014/090993 A1, on day 18 (FIG. 1a, step 5). After moving to the shaker, media was changed every 3-4 days. Shaking speed was calculated based on the throw of the shaker. […]

Data set [2] has as its system H1 spheroids. Nature of the data set: Three day CHIR pulse in spheroids, germ layer staining. Format: cell-based, human. Conditions: 3-day CHIR pulse alone, day 40 spheroids.
Experimental: Organoids were fixed in 4% paraformaldehyde for 20 min at room temperature and washed with PBS three times for 10 min each at room temperature before allowing to sink in 30% sucrose at 4° C. […] Statistical analysis of quantifications performed from imaging data was performed using Student's t-test for significance.
The subject of data set [3] is H9 enCORs. Nature of the data set: Cortical plate / basement membrane formation in enCORs with dissolved ECM components or GM6001. In kind it is cell-based, human. As for the experimental part: At day 20, media was changed to an improved differentiation+A (IDM+A): 1:1 of DMEM/F12 and Neurobasal, 0.5% N2 supplement, 2% B27+vitamin A, 0.25% insulin solution, 50 μM 2-mercaptoethanol, 1% Glutamax, 0.5% MEM-NEAA, 1% Penicillin-Streptomycin, 0.4 mM Vitamin C, and 1.49 g HEPES per 500 ml to control pH levels. Alternatively, media can be pH controlled with further bicarbonate buffering with the addition of 1 mg/ml sodium bicarbonate. At day 40, media was changed to IDM+A with 1 ml dissolved Matrigel per 50 ml media by slowly thawing the Matrigel on ice and addition to cold media to dissolve (FIG. 1a, step 6).
For treatment with matrix metalloprotease inhibitor GM6001 (Selleck Chemicals S7157), a final concentration of 3 μM was added beginning on day 30.

On to `Cc1c[nH]c(-c2cnc(NCCNc3ccc(C#N)cn3)nc2-c2ccc(Cl)cc2Cl)n1` [CHIR, CHIR99021], for which the neuroepithelial bud morphology result in data set [1] (CHIR 3 μM, day 13 to 16, after Matrigel embedding) is “larger, more continuous buds of neuroepithelium; also recorded: dramatic lateral expansion of neuroepithelial tissues and the generation of larger lumens with surrounding continuous neuroepithelium”. Moreover, the “dorsal brain region identity staining (Emx1, Tbr1, Tbr2)” value in data set [1] (microfilament patterned organoids treated with CHIR) is “all large lobes of brain tissue within microfilament patterned organoids treated with CHIR to be dorsal cortex; also recorded: large Emx1+ regions; also recorded: virtually all large regions stained positive for dorsal cortical markers Tbr1 and Tbr2”. In addition, the “germ layer induction and organoid morphology” value in data set [2] is listed as “did not influence germ layer induction or overall organoid morphology”.
Regarding `CNC(=O)[C@H](Cc1c[nH]c2ccccc12)NC(=O)[C@@H](CC(=O)NO)CC(C)C` [GM6001], the CP formation entry in data set [3] (GM6001 3 μM continuous from day 30, 60-day enCORs) is recorded as “no signs of CP formation; also recorded: did not result in CP formation by 60 days”.
As for `CCO` [ethanol], the “ethanol concentration in the media” value (150 mM dose, within a day) is on record as “approximately 60 mM”. Further, the “course of ethanol concentration in the media” value (all doses tested) is given as “progressive decrease in concentration over time”. Besides, where the note is “equivalent of approximately 60 mM”, the “equivalent blood alcohol content” value worked out at 0.27 % by volume.
Consider laminin, for which the CP formation result in data set [3] (dissolved laminin 35 μg/ml from day 40, 60-day enCORs) is given as “no evidence of CP formation; also recorded: did not recapitulate the extent of CP formation seen with Matrigel”.
